Measurements published in patent US20230364121A1 (priority 2020, published 2023).
Where “and” joins values, the source holds several entries; their conditions need not be identical. Equal entries are not always repeated. Where two headings read alike, the source gives them in different places.

What was measured:
[1] = test system: SARS-CoV-2 strain BavPatl; assay: Antiviral assay in HUH7.5 cells, viral RNA by RT-qPCR; format: cell-based; conditions: 2 days
[2] = test system: HUH 7.5 cells
[3] = test system: human coronavirus alpha-229E; assay: microbe, parasite or virus in culture; format: cell-based, HCoV-229E
[4] = test system: human coronavirus beta-OC43; assay: microbe, parasite or virus in culture; format: cell-based, HCoV-OC43; conditions: unidentified human coronavirus, OC43, Huh-7, read-out: VYR EC90
[5] = Cytotoxicity in mock infected BHK cells (MTT); format: cell-based, hamster; conditions: hamster, uninfected BHK-21 cells; BHK-21; Table 5
Experimental: To determine the cytotoxicity, cells were seeded at an initial density of 1×10^6 cells/mL in 96 well plates containing Minimum Essential Medium with Earles's salts (MEM-E), L-glutamine, 1 mM sodium pyruvate and 25 mg/L kanamycin, supplemented with 10% fetal bovine serum. Cell cultures were then incubated at 37° C. in a humidified 5% CO2 atmosphere in the absence or presence of serial dilutions of test compounds. Cell viability was determined by the MTT method.
Uninfected cells in the presence of serially diluted compound were used to assess the cytotoxicity of compounds.

[6] = test system: SARS-CoV (Urbani); format: cell-based; conditions: SARS-CoV-1, Huh-7, Table 5
[7] = test system: SARS-CoV-2 (WA1); assay: microbe, parasite or virus in culture; format: cell-based
[8] = test system: HCoV-229E; assay: Virus-induced CPE assay, HCoV-229E in BHK-21 cells (MTT); format: cell-based
Experimental: In an initial screening, BHK-21 cells acutely infected with a seasonal human alpha coronavirus, HCoV-229E, were exposed to serial dilutions of Compound 1A.
BHK-21 cells: Test compounds were dissolved in DMSO at 100 mM and then diluted in Minimum Essential Medium with Earle's salts (MEM-E) containing 1 mM sodium pyruvate and 25 μg/mL kanamycin, supplemented with 10% FBS (growth medium) to final concentrations of 100, 20, 4 and 0.8 μM (two […] replica plates each). After BHK-21 cells were grown to confluency in 96-well plates, growth medium was replaced with fresh maintenance medium (growth medium with 1% inactivated FBS in place of 10% FBS) containing serially diluted test compound and HCoV-229E at a multiplicity of infection (MOI) of 0.01. Uninfected cells in the presence of serially diluted compound were used to assess the cytotoxicity of compounds. After a 3-day incubation at 37° C. in a humidified 5% CO2 atmosphere, cell viability was determined by the MTT method (Pauwels, R et al. J. Virol. Methods 20(4):309-321 (1988)).

[9] = test system: HCoV-OC43; assay: microbe, parasite or virus in culture; format: cell-based; conditions: Betacoronavirus 1, OC43, RD
[10] = test system: MERS-CoV; format: cell-based
[11] = test system: HCoV-229E, HCoV-OC43, SARS-CoV-1 and SARS-CoV-2; assay: organism not typed; format: cell-based, human coronaviruses; conditions: Huh-7, read-out: Individual determinations of EC90 values
[12] = test system: Huh7 cells; conditions: human
[13] = test system: RD cells; conditions: human
[14] = test system: HCoV-229E; conditions: MRC-5 cells; cited from earlier work
[15] = test system: dNHBE (HAE) cells; conditions: human
[16] = read-out: Neutral Red Assay EC50
[17] = read-out: Virus Yield Reduction Assay EC90
[18] = Severe acute respiratory syndrome coronavirus 2, HAE, read-out: EC90, single replicates
[19] = Severe acute respiratory syndrome coronavirus 2, HAE, read-out: Virus Yield Reduction Assay EC90
[20] = read-out: EC90, single replicates

## CNc1nc(N)nc2c1ncn2[C@@H]1O[C@H](COP(=O)(N[C@@H](C)C(=O)OC(C)C)Oc2ccccc2)[C@@H](O)[C@@]1(C)F (some centres unmarked) [Compound 1A]
[1]
  EC90: 3390 nM
[1]; listed as AT-511
  EC50: 1100 nM and 1130 nM
[2]
  CC50: > 20000 nM

## CNc1nc(N)nc2c1ncn2[C@@H]1O[C@H](CO[P@@](=O)(N[C@@H](C)C(=O)OC(C)C)Oc2ccccc2)[C@@H](O)[C@@]1(C)F [Compound 1A]
[3]; Huh-7, Table 5
  Selectivity Index (CC50/EC90): >75
[3]; [16]
  EC50: 1600 nM
[3]; unidentified human coronavirus, Huh-7, 72 h, read-out: Virus Yield Reduction Assay EC90
  EC90: 1000 nM
[3]; unidentified human coronavirus, Huh-7, 120 h, read-out: Neutral Red Assay EC50
  EC50: 1700 nM
[3]; unidentified human coronavirus, Huh-7, read-out: Neutral Red EC50
  EC50: 1000 nM
[3]; unidentified human coronavirus, Huh-7, read-out: VYR EC90
  EC90: 710 nM
[3]; unidentified human coronavirus, Huh-7, read-out: Visual EC50, Huh7 cells, visual CPE
  EC50: 1000 nM
[4]
  EC90: 290 nM
[5]
  CC50 at 3 days: > 100000 nM
[6]
  Selectivity Index (CC50/EC90): >250
[6]; [17]
  EC90: 340 nM
[7]
  replicate EC90 determinations: ^2Value represents the mean of two replicate EC90 determinations, 0.33 and 0.41 μg/mL
[7]; Severe acute respiratory syndrome coronavirus 2, HAE, read-out: Average EC90 from two separate HAE assays
  EC90: 500 nM
[7]; [18]
  EC90: 570 nM
[7]; [19]
  EC90: 0.37 µg/mL and 640 nM
[7]; Severe acute respiratory syndrome coronavirus 2, HAE, read-out: replicate EC90 determinations
  EC90: 0.33 µg/mL
[7]; dNHBE, virus yield reduction assay
  Selectivity Index: >135
[7]; [20]
  EC90: 700 nM and 520 nM and 420 nM
[7]; [17]
  EC90: 470 nM
[8]; BHK-21, the 2 experiments averaged in Table 5, read-out: EC50, single experiments
  EC50: 2000 nM
[8]; Human coronavirus 229E, BHK-21, 72 h, BHK-21, dye staining, 3-day incubation, read-out: EC50
  EC50: 1800 nM
[8]; Human coronavirus 229E, BHK-21, BHK-21, the 2 experiments averaged in Table 5, read-out: EC50, single experiments
  EC50: 1600 nM
[9]; [16]
  EC50: 2800 nM
[9]; [17]
  EC90: 2200 nM
[10]
  difference of activity between MERS-CoV and other CoVs: 30 fold
[11]
  EC90: 340 to 1200 nM
[12]
  Neutral Red Assay CC50: >50^ μg/mL
[13]
  CC50: > 86000 nM
[14]
  EC50: > 100000 nM

## O=c1nc(NO)ccn1[C@@H]1O[C@H](CO)[C@@H](O)[C@H]1O [N4-hydroxycytidine, reference compound]
[7]
  Selectivity Index (CC50/EC90): >5.1
  potency relative to Compound 1A in the same experiment (times less): 8 times
[7]; [18]
  EC90: 4700 nM
[7]; [19]
  EC90: 3900 nM
[7]; [20]
  EC90: 3100 nM
[15]
  CC50: > 19000 nM
